This is an account of results in a melting point compilation (Tetko et al.; mined from patent text by program, amines drawn as free bases though some values may be those of a salt).

A value given as a limit tells only on which side of the number the result lay.

Turning to `C#CC1(COCc2ccccc2)OC(n2ccc(=O)[nH]c2=O)C(OC(C)=O)C1OCc1ccccc1` (stereo not given), the melting point (commonly the temperature of the solid-liquid transition) is 105 to 106 °C.

`Cc1nn(-c2ccccn2)c2nc3ccccc3c(N(C)C)c12` had a melting point of 98 to 101 °C.

Compound `Cc1c(Cc2cccc(C(F)(F)F)c2)oc2c(-c3cccc(C(=O)NCCS(C)=O)c3)cccc12` (stereo not given) returned a melting point of 146 to 147 °C.

Compound `CC(C)(O)C(=O)CC(=O)c1ccc(C(=O)CC(=O)C(C)(C)O)cc1` gave a melting point of 276 to 278 °C.

Compound `CN1C(=O)Cc2cnc(N3CCN(C(c4ccccc4)c4ccccc4)CC3)nc21` showed a melting point of 75 to 80 °C.

For `Cc1noc(C(=O)N2CCCCC2)c1C(=O)O`, the melting point is 128 to 130 °C.

The compound `COC(=O)c1cc(-c2ccncc2)[nH]c1-c1ccncc1` yielded a melting point of more than 270 °C.

In the case of `COC(=O)c1cc2cc(OC)c(OC)cc2c(-c2ccncc2)c1C(=O)OC`, the melting point fell in the range of 196 to 198 °C.

As for `CSC(=NC#N)NCCSc1ncccc1C(=O)c1ccccc1`, the melting point is 180 to 181 °C.

The compound `CCOC(=O)C(=Cc1cnccc1OC)N=[N+]=[N-]` yielded a melting point of 92 to 95 °C.

For `CN(C)CCCn1c(-c2ccc(Br)cc2)cc2c1CCCCC2`, the melting point fell in the range of 69 to 70 °C.

With `CCCCN(CC)CC(=O)N1c2ccccc2N(C)C(=O)c2cnc(-c3ccccc3)nc21`, the melting point was in the range of 107 to 109 °C.

Consider `N#CCC(=O)Nc1cc(Cl)c(Cl)cc1[N+](=O)[O-]`, for which the melting point is 156 to 158 °C.

Turning to `COc1ccc(C2(O)CCN(CC3CN(c4cccc(OC)c4)C(=O)O3)CC2)cc1` (stereo not given), the melting point lay within 158 to 160 °C.

Compound `CN(CC(=O)NC1(c2ccccc2Cl)C(=O)Nc2ccc(Cl)cc21)CC(=O)OC(C)(C)C` (stereo not given) gave a melting point of 200 °C.

`COc1cc(OC)nc(NC(=O)NS(=O)(=O)c2ccccc2-c2cnoc2)n1` showed a melting point of 175 to 178 °C.

The compound `COc1cc2c(cc1Nc1ncc(Cl)c(Nc3ccccc3S(=O)(=O)N(C)C)n1)CCN(C(=O)CN1CCOCC1)CC2` had a melting point of 84 to 95 °C.

With `COC(=O)/C=C/c1c(SC(F)(F)F)c(C#N)nn1-c1c(Cl)cc(C(F)(F)F)cc1Cl`, the melting point came to 90 °C.

For `CC(C)(C)C1=C(c2cc3cc(O[Si](C)(C)C(C)(C)C)ccc3s2)OCC1(C)C`, the melting point is 88 to 89 °C.

In turn, `O=C(Nc1ccc(Oc2ccnc(NC3CCS(=O)(=O)C3)n2)c2ccccc12)c1cc(F)cc(N2CCOCC2)c1` (stereo not given) registered a melting point of 150 to 151 °C.

As for `CCC(=O)N1Cc2cn[nH]c2-c2ccccc21`, the melting point was 130 to 131 °C.

Compound `CC(=CC(=O)Nc1ccc(C(=O)O)cc1)c1cc(C(C)C)c(C(C)C)o1` registered a melting point of 232 to 235 °C.

`O=C(O)[C@H]1CCCN1C(=O)CCCc1ccccc1` had a melting point of 86 to 87.5 °C.

Turning to `CNc1cc(Cl)c(C=O)c(Cl)c1`, the melting point fell in the range of 172 to 174 °C.

As for `Nc1c(C(=O)c2ccc(Cl)cc2)oc2ccccc12`, the melting point lay within 202 to 204 °C.

As to `COc1cc(SC2SCC(OC(C)=O)C(OC(C)=O)C2OC(C)=O)cc(OC)c1OC` (stereo not given), the melting point was 101 °C.

On to `CCC12CCC(=O)C=C1c1c(cc(OCC(=O)OCC3COC(C)(C)O3)c(Cl)c1Cl)C2` (stereo not given), for which the melting point lay in the range of 143 to 145 °C.

Consider `Cc1cc(=O)c(OCc2ccccc2)c(C(=O)NC2CCCCC2)n1C`, for which the melting point is 258 to 260 °C.

In the case of `CCOC(=O)C=C(c1ccc(-c2ccccc2)cc1)C1(n2cncn2)CC1`, the melting point fell in the range of 98 to 100 °C.

Regarding `CCCCCC(=O)ONC(=N)c1ccc(NC(=O)CCCC(=O)Nc2ccc(C(=N)NOC(=O)CCCCC)cc2)cc1`, the melting point fell in the range of 182 to 184 °C.

The compound `O=C(Cc1c(-c2ccccc2)c2cc(CSc3ccccn3)c(Cl)cc2oc1=O)Nc1ccc(Cl)cc1C(F)(F)F` showed a melting point of 213 to 215 °C.

Compound `CC(C)(C)c1ccc2c(c1)C(=O)c1ccc(C(=O)O)cc1S2(=O)=O` came in with a melting point of 259 to 262 °C.

For `O=C(O)C=C(C(=O)c1ccc(Cl)c(Cl)c1)c1ccccc1`, the melting point was 101 to 103 °C.

`CCCCc1nc2c(N)nc3ccccc3c2n1CCOCCCc1ccccc1` had a melting point of 80.8 to 81.3 °C.

`O=C(O)c1nn(-c2ccccc2)c2c1CCc1cc(Cl)ccc1-2` had a melting point of 282 °C.

`O=C(O)CCNC(=O)C(=Cc1ccc(-c2ccccc2)cc1)CS` returned a melting point of 125 °C.

The compound `COc1ccc2c(c1)CCC1C2CCC2(C)C(OC(C)(C)C)CCC12` (stereo not given) showed a melting point of 91 to 92.5 °C.

Turning to `O=C1C(CCC(O)c2ccc(F)cc2)C(c2ccc(-c3cccc(O)c3)cc2)N1c1ccc(F)cc1` (stereo not given), the melting point stood at 107 °C.

The compound `COc1cc(C(=O)Oc2ccc3c(OC(=O)c4ccc(O)c(OC)c4)c4cc(OC(=O)c5ccc(O)c(OC)c5)ccc4cc3c2)ccc1O` yielded a melting point of 206 °C.

Regarding `Cc1nc(NCCc2ccc(OCc3nn[nH]n3)cc2)c2cc(C)sc2n1`, the melting point came to 205 °C.

The compound `COc1cccc(C2CCCCN(C)C2=O)c1` (stereo not given) had a melting point of 73 to 74 °C.

Regarding `Cc1cc(C#CC(C)(C)O)cc(C)c1Oc1ccc([N+](=O)[O-])c(Nc2ccc(C#N)cc2)n1`, the melting point is 114 to 116 °C.

Compound `O=C(NCC1(O)CCCCCC1)c1cc(-c2ccc(Cl)c(C(=O)O)n2)ccc1Cl` registered a melting point of 146 to 149 °C.

In turn, `COc1cnc(NCCNCC(O)COc2ccccc2)c2ccccc12` (stereo not given) showed a melting point of 152 to 153 °C.

In the case of `Cc1oc(-c2ccco2)nc1COc1ccc(COc2nn(-c3ccccc3)cc2C#N)cc1`, the melting point was in the range of 158 to 159 °C.

`COc1ccc(Cc2ccc(C(=O)O)nc2)cc1` showed a melting point of 145 to 147 °C.

`CC(C)(C)OC(=O)NCCOCCNC1(c2ccccc2Cl)C(=O)Nc2ccc(Cl)cc21` (stereo not given) showed a melting point of 138 to 140 °C.

In the case of `Cn1nc(C(F)(F)F)cc1Oc1cccc(C(=O)NCC(F)(F)F)n1`, the melting point came to 136 °C.

`O=C1c2cccc3cccc(c23)C(=O)N1CCN1CCC(c2c[nH]c3ccc(F)cc23)CC1` came in with a melting point of 235 °C.

Take `COc1cccc2sc(-c3ccc(C(=O)O)cc3)nc12`: the melting point lay within 289 to 291 °C.

For the compound `CCOC(=O)C(=O)Nc1ccc(C#N)c(C#N)c1`, the melting point worked out at 194 °C.

With `c1ccc(Nc2nc(-c3ccco3)nc3ccccc23)cc1`, the melting point lay within 183 to 184 °C.

In turn, `N#CNc1ccccc1-c1ccc(Cl)cc1` yielded a melting point of 106 to 107 °C.

For the compound `CC(=O)c1c(-c2ccncc2)sc(Cl)c1C`, the melting point lay within 60 to 61 °C.

In the case of `Fc1cccc(CCc2nnc(-c3ccnc4[nH]ccc34)o2)c1`, the melting point is 147 to 148 °C.

`Cc1nc(-c2cc(Cl)ccc2Cl)n2c1nnc1ccc(-c3cc(Cl)ccc3Cl)cc12`: the melting point is 190 to 193 °C.

`N#Cc1ccc(-c2cc(C(=O)N[C@H]3CC[C@H](C(=O)O)CC3)c(=O)n(Cc3ccccc3)n2)cc1` yielded a melting point of 215 to 218 °C.

The compound `Cc1cccc(Cl)c1NS(=O)(=O)c1nc2sccn2n1` registered a melting point of 91 to 93 °C.

In the case of `Cc1ccccc1-n1c(-c2sc(Nc3ccc(Cl)cc3)nc2C)nc2ccccc2c1=O`, the melting point was more than 275 °C.

As to `COC(=O)c1nc2n(c1C(=O)OC)-c1ccc(Cl)cc1C(c1ccccc1F)=NC2`, the melting point is 206 to 207 °C.
